Values of other authors, collected in patent US6995188B2 (priority 2002, dated 2006).
Read-outs that look alike come from different tables or passages of the source.

Key:
[1] = test system: P388 lymphocytic leukemia cells; details: mouse, in vivo, ip, cited from earlier work
[2] = test system: APL and non-APL cell lines; details: compared with arsenic trioxide; cited from earlier work
[3] = test system: patients with advanced leukemia; details: 8 patients, 3 days per week for 3 consecutive weeks; cited from earlier work

Compound: CC(=O)N[C@@H]1[C@@H](OC(C)=O)[C@H](OC(C)=O)[C@@H](COC(C)=O)O[C@H]1S[As](C)C [Compound 18, 2-acetamido-3,4,6-tri-O-acetyl-2-deoxy-1-S-dimethylarsino-1-thio-β-D-glucopyranose]
- % T/C ([1]; 50 mg/kg): 136%

Compound: CC(=O)N[C@H]1[C@@H](OC(C)=O)O[C@H](CS[As](C)C)[C@@H](OC(C)=O)[C@@H]1OC(C)=O [Compound 20, 2-acetamido-1,3,4-tri-O-acetyl-2-deoxy-6-S-dimethylarsino-6-thio-α-D-glucopyranose]
- % T/C ([1]; 100 mg/kg): 136%

Compound: 2,3,4,6-tetra-O-acetyl-1-S-hydroxyethylmethyl-1-thio-β-D-glucopyranose [Compound 4]
- % T/C ([1]; 100 mg/kg): 116%

Compound: CC[As](CC)S[C@@H]1O[C@H](COC(C)=O)[C@@H](OC(C)=O)[C@H](OC(C)=O)[C@H]1OC(C)=O [Compound 3, 2,3,4,6-tetra-O-acetyl-1-S-diethylarsino-1-thio-β-D-glucopyranose]
- % T/C ([1]; 100 mg/kg): 180%

Compound: CC(=O)OC[C@H]1O[C@@H](S[As](C)C)[C@H](OC(C)=O)[C@@H](OC(C)=O)[C@H]1OC(C)=O [Compound 16, 2,3,4,6-tetra-O-acetyl-1-S-dimethylarsino-1-thio-β-D-galactopyranose]
- % T/C ([1]; 100 mg/kg): 129%

Compound: C[As](C)SCC(N)C(=O)O (racemic) [Compound 10, S-dimethylarsino-DL-cysteine]
- % T/C ([1]; 50 mg/kg): 110%

Compound: CC(C)CCC[C@@H](C)[C@H]1CC[C@H]2[C@@H]3CC=C4C[C@@H]([Se][As](C)C)CC[C@]4(C)[C@H]3CC[C@]12C [Compound 15, Se-dimethylarsino-selenocholesterol]
- % T/C ([1]; 200 mg/kg): 129%

Compound: CC(=O)OC[C@H]1O[C@@H](S[As](C2CCCCC2)C2CCCCC2)[C@H](OC(C)=O)[C@@H](OC(C)=O)[C@@H]1OC(C)=O [Compound 6, 2,3,4,6-tetra-O-acetyl-1-S-dicyclohexylarsino-1-thio-β-D-glucopyranose]
- % T/C ([1]; 400 mg/kg): Toxic

Compound: CCCC[As](CCCC)S[C@@H]1O[C@H](COC(C)=O)[C@@H](OC(C)=O)[C@H](OC(C)=O)[C@H]1OC(C)=O [Compound 1, 2,3,4,6-tetra-O-acetyl-1-S-dibutylarsino-1-thio-β-D-glucopyranose]
- % T/C ([1]; 100 mg/kg): 117%

Compound: Nc1nc(N)nc(Nc2ccc([As]3SCC(CO)S3)cc2)n1 (centres unmarked) [melarsoprol]
- activity against APL and non-APL cell lines [2]: activity at least equivalent to that of arsenic trioxide
- antitumor effects [3]: Only one patient (with chronic lymphocytic leukemia) displayed antitumor effects
- side effects [3]: most experienced neurological side effects

Compound: CCCCCCCCCCCCCCCC[As](CCCCCCCCCCCCCCCC)S[C@@H]1O[C@H](COC(C)=O)[C@@H](OC(C)=O)[C@H](OC(C)=O)[C@H]1OC(C)=O [Compound 5, 2,3,4,6-tetra-O-acetyl-1-S-dihexadecylarsino-1-thio-β-D-glucopyranose]
- % T/C ([1]; 50 mg/kg): 125%

Compound: CCC[As](CCC)S[C@@H]1O[C@H](COC(C)=O)[C@@H](OC(C)=O)[C@H](OC(C)=O)[C@H]1OC(C)=O [Compound 2, 2,3,4,6-tetra-O-acetyl-1-S-dipropylarsino-1-thio-β-D-glucopyranose]
- % T/C ([1]; 200 mg/kg): 124%
